Data set [1] is described as follows: Solubility test 1: 5 mg in 5 ml ion-exchanged water, macroscopic (1 mg/ml). In kind it is physicochemical. The following applies: room temperature, 5 minutes shaking, 1 mg/ml. Here is the method:
(§1) The solubility tests were conducted by the following methods of tests 1 and 2:
5 mg of a methine compound is fed into a test tube, to which 5 ml of ion-exchanged water is added, the resultant mixture is shaken at room temperature for 5 minutes, and the solubility thereof is macroscopically confirmed (1 mg/ml solution).

Data set [2] is described as follows: Solubility test 2: 5 mg in 0.5 ml ion-exchanged water, macroscopic (10 mg/ml). The following applies: room temperature, 5 minutes shaking. In kind it is physicochemical. Here is the method:
as §1
5 mg of a methine compound is fed into a test tube, to which 0.5 ml of ion-exchanged water is added, the resultant mixture is shaken at room temperature for 5 minutes, and the solubility thereof is macroscopically confirmed (10 mg/ml solution).

Data set [3] is described as follows: Solubility in 5% glucose solution for injection, macroscopic (10 mg/ml). In kind it is physicochemical. The following applies: room temperature, 5 minutes shaking. Here is the method:
The solubility of each of the compounds of the present invention synthesized in Example 1 in 5% glucose solution for injection was examined.
5 mg of a methine compound was fed into a test tube, to which 0.5 ml of 5% glucose solution for injection was added, the resultant mixture was shaken at room temperature for 5 minutes, and the solubility thereof was macroscopically confirmed (10 mg/ml solution).

Data set [4] relates to human colonic epithelial carcinoma LS174T. Kind of data set: Activity against human colonic epithelial carcinoma LS174T in nude mouse (tumor inhibition). The class given is in vivo, human (transplanted in BALB/C nu/nu mice). As to conditions: i.v.; 20 mg/kg days 1, 3, 7, 11, 16, 18; 25 mg/kg day 9. The protocol: Activity of the present pharmaceutical compositions against human colonic epithelial carcinoma LS174T was determined by use of nude mouse as follows:
As the human colonic epithelial carcinoma cell lines LS174T, there was used the established line by trypsinizing piece of LS174T obtained from the operating theatre of the original adenocarcinoma of colon in such that the piece becomes suitable for cultivation. When this cultured cells LS174T are hypodermically injected to a nude mouse, the cells can be easily grown in the body of the nude mouse as a moderately to sufficiently differentiated human colonic epithelial carcinoma. The cells LS174T produce CEA in high level and can proliferate in hamster cheek pouches or immunodeprived mice, so that it has been proven that the cells LS174T have neoplastic properties.
BALB/C nu/nu mice (male, five weeks age) available from Charles River Japan Inc. were placed in an atmosphere having no pathogen. Tumors formed by the hypodermic injection of human colonic epithelial carcinoma cell lines LS174T into the mice were cut off under the aseptic condition, and the surrounding skin and connective tissue of the tumor tissues as well as the necrotic tissue located in the center of the tumor tissues were removed. The tumor tissues were Cut in the form of 3-5 mm square, and the resulting one tissue was charged into a needle for transplantation to hypodermically transplant it into the mouse. The resulting mice were randomly divided into control group (six mice) and treating group (six mice). The intravenous administration of the pharmaceutical composition into the treating group started next day. The amount and schedule of the administration were determined based on the experience, mainly the knowledge from the pretoxic-test data of LD 50 and LD 10.5% glucose solution or physiologic saline for injection was injected to the control group in the same amount as that to be intravenously injected to the treating group.
The pharmaceutical composition was dissolved in 5% glucose solution or physiologic saline for injection in such that the amount of the pharmaceutical composition contained in the glucose solution or physiologic saline is 5 ml per one kg of weight of the mouse to be injected so as to prepare an injection liquid. When the proliferation of tumor in the control group reached exponential growth phase and the size of the tumor became detectable by touch with hand, i.e., generally three weeks after the transplantation, the experiment was stopped. Then the tumor of each mouse was cut off and the weight of the resulting tumor was measured by use of chemical balance. Regarding each group, tumor inhibition percentage between the treating group and control group was calculated.

For data set [5], the system named is LOX, a human melanoma cell line. Briefly: Nude mice bearing human melanoma LOX (survival). As to conditions: i.p.; 5 mg/kg day 1; 7.5 mg/kg days 2, 5; 10 mg/kg days 7, 9, 13, 15. In kind it is in vivo, human (in male athymic Swiss nu/nu mouse). Here is the method:
Nude Mice Bearing Human Melanoma as a Model System
LOX, a human melanoma cell line, grown subcutaneously in nude mice was excised, trypsinized to yield a single cell suspension using a metal grid with a […]. Red blood cells were lysed by incubation with 0.17 molar ammonium chloride at 4° C. for 20 minutes. Five million viable trypan blue negative cells made up in 0.1 ml of Dulbecco modified Eagles' medium (DME) were injected into the peritoneal cavity of a male athymic Swiss nu/nu mouse. The control group and each treatment group consisted of 5 to 10 mice. Treatment was commenced the following day by intraperitoneal injection.
Ten control mice received 0.25 ml of 2% dextrose on those days the treated groups were injected with the compounds of this invention. The compounds of the General Formulas (I) to (II) used in this invention which were tested are listed in Table 6 below and the results obtained are shown in Table 6 of the accompanying drawings. T/C is the ratio, expressed as a percentage of the mean survival age of the treated group to the mean survival age of the untreated control group.

We go through 1 compound from patent US5599825A, “Water-soluble methine compound and pharmaceutical composition for treatment of cancer comprising the same” (Fuji Photo Film Co., Ltd., priority 1994, dated 1997).

For the compound `CCn1c(=Cc2sc3ccccc3[n+]2CCOCCOCCOC)sc(=C2Sc3ccc(OC)cc3N2C)c1=O` [Compound 1-13], the “Solubility 1 mg/mL” value in data set [1] was “soluble”. In addition, the “Solubility 10 mg/mL” value in data set [2] and in data set [3] was “soluble” throughout. Besides, the “Tumor Inhibition Ratio” value in data set [4] was found to be 45.2%. Besides, the “T/C (mean survival age of treated group to untreated control group)” value in data set [5] was determined as 124%.
